We go through one compound from paper PMC12848038, “O-GlcNAc and phosphorylation modifications on HtL1/FBA10 regulate wheat vernalization for flowering” (Nature Communications, 2025).

The structures appear in SMILES notation.

The target in this assay is T1, HtL1/FBA10 (HtL1-GST) (Triticum aestivum, UniProt A0A1D5VE13).
T1 construct: gene LOC123071650; class I aldolase, homotetramer only predicted (SWISS-MODEL); cytosolic
T1 sequence (A0A1D5VE13 1-358): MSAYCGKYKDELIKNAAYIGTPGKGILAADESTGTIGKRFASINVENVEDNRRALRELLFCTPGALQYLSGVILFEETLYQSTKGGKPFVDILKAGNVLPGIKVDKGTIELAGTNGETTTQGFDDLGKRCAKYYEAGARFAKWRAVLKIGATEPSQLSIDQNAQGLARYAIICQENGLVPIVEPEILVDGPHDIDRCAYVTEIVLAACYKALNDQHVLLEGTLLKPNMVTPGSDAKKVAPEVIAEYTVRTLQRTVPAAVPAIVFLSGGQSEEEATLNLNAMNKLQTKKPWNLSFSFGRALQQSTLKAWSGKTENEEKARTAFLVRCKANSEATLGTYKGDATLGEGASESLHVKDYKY
Kind of assay: fructose-1,6-bisphosphate aldolase activity assay kit, microplate reader; enzyme kinetic curve. The note with it: GST fusion protein; no constant in text; kinetic curve only in figure. The class given is biochemical.

With `O=P(O)(O)OC[C@H]1OC(O)(COP(=O)(O)O)[C@@H](O)[C@@H]1O` (stereo partly shown) [FBP, fructose 1,6-bisphosphate], the “fructose-1,6-bisphosphate aldolase activity assay kit, microplate reader; enzyme” value was “Enzyme kinetic curves and activity assays collectively demonstrated that HtL1 exhibits fructose-bisphosphate aldolase activity”.
